Legend:
[1] = Single crystal X-ray structure, unit cell parameters; type: physicochemical; conditions: for R: crystal structure determination; for Volume / ρ (calculated): unit cell; for Z / a / b / c / α / β / γ: unit cell parameter; for Isostructural to Methyl Ethyl ketone Solvate?: eplerenone crystalline solvate
From the text: Tables 8, 9 and 10 below summarize the unit cell parameters determined for Form H, Form L, and several solvated crystalline forms. […]

[2] = Thermogravimetric analysis of solvates (desolvation); type: physicochemical; conditions: eplerenone crystalline solvate; extrapolated from final solvent weight loss step, TGA, 10° C./minute, nitrogen purge
Protocol: Thermogravimetric analysis of solvates was performed using a TA Instruments TGA 2950 thermogravimetric analyzer. Samples were placed in an unsealed aluminum pan under nitrogen purge. Starting temperature was 25° C. with the temperature increased at a rate of about 10° C./minute.

[3] = test system: myocardial fibrosis in animal models; conditions: cited from earlier work

Row | SMILES | Isostructural to Methyl Ethyl ketone Solvate? [1] | Desolvation Temperature [2] [°C] | also measured
1 | COC(=O)[C@@H]1CC2=CC(=O)CC[C@]2(C)C2=CC[C@@]3(C)C(CCC34CCC(=O)O4)C21 (stereo partly drawn) [9,11 olefin] |  |  | R [1]: 0.0764; Volume [1]: 2069.3 Å; ρ (calculated) [1]: 1.279 g/mL; Z [1]: 4; a [1]: 20.90 Å Å; b [1]: 15.74 Å Å; c [1]: 6.29 Å Å; α [1]: 90°; β [1]: 90°; γ [1]: 90°
2 | CC(=O)O [Acetic Acid] | Yes |  | 
3 | CC(C)=O [Acetone] | Yes | 117 | 
4 | CCCCOC(C)=O [Butyl Acetate] | Yes | 108 | 
5 | ClC(Cl)Cl [Chloroform] | Yes | 125 | 
6 | CCC(C)=O [Methyl Ethyl Ketone] |  | 89 | 
7 | C1CCOC1 [Tetrahydrofuran] | Yes | 136 | 
8 | Cc1ccccc1 [Toluene] | Yes | 83 | 
9 | COC(=O)[C@@H]1CC23O[C@@H]2C(=O)CC[C@]3(C)[C@@]23OC2C[C@@]2(C)C(CCC24CCC(=O)O4)C13 (stereo partly drawn) [diepoxide, 7-methyl hydrogen 4α,5α:9α,11α-diepoxy-17-hydroxy-3-oxo-17α-pregnane-7α,21-dicarboxylate, γ-lactone] |  |  | R [1]: 0.0762; Volume [1]: 2119.0 Å; ρ (calculated) [1]: 1.349 g/mL; Z [1]: 4; a [1]: 21.328 Å Å; b [1]: 16.16 Å Å; c [1]: 6.15 Å Å; α [1]: 90°; β [1]: 90°; γ [1]: 90°
10 | CC(=O)S[C@@H]1CC2=CC(=O)CC[C@]2(C)[C@H]2CC[C@@]3(C)[C@@H](CC[C@@]34CCC(=O)O4)[C@H]12 [spironolactone] |  |  | myocardial fibrosis [3]: prevents myocardial fibrosis
11 | CC(=O)OC(C)(C)C [t-Butyl Acetate] | Yes | 109 | 

Second part, led by results:

Row | Isostructural to Methyl Ethyl ketone Solvate? [1] | Desolvation Temperature [2] [°C] | SMILES | also measured
12 | Yes | 166 | CCO [Ethanol] | 
13 | Yes | 122 | CCOC(=O)CC [Ethyl Propionate] | 
14 | Yes | 112 | CC(=O)OCC(C)C [Isobutyl Acetate] | 
15 | Yes | 121 | CC(C)O [Isopropanol] | 
16 | Yes | 103 | COC(C)=O [Methyl Acetate] | 
17 | Yes | 130 | CCCOC(C)=O [Propyl Acetate] | 
18 | Yes | 188 | CC(O)CO (stereo not drawn) [Propylene Glycol] | 
19 | Yes | 103 | CCCCO [n-Butanol] | 
20 | Yes | 116 | CCCCCCCCO [n-Octanol] | 
21 | Yes |  | CCCO [n-Propanol] | 

From patent US20030220310A1, “Epoxy-steroidal aldosterone antagonist and calcium channel blocker combination therapy for treatment of congestive heart failure” (priority 2003, published 2003)
